According to publication PMC2699512 (Nucleic Acids Research, 2009):
Each block holds one compound with its values, some of them ahead of it.

What was measured:
[1] = molecular target: T1, yeast RNA triphosphatase (Cet1; S. cerevisiae RTPase) (Saccharomyces cerevisiae, UniProt O13297); experiment: GTPase inhibition kinetics, TLC; assay type: biochemical
T1 sequence (O13297 2-549): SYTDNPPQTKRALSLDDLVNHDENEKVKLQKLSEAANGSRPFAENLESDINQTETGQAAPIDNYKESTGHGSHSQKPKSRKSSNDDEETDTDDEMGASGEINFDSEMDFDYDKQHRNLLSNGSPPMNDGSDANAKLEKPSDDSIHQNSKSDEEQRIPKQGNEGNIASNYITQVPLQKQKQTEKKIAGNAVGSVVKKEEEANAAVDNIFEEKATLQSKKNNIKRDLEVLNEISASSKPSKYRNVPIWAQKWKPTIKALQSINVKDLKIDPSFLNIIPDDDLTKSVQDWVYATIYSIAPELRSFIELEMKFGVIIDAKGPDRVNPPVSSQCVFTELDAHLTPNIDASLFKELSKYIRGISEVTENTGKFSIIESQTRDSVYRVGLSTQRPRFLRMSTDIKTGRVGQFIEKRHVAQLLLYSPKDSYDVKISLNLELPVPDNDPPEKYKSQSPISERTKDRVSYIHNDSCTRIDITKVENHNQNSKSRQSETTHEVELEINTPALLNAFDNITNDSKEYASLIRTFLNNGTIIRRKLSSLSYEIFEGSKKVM

[2] = molecular target: T1, yeast RNA triphosphatase (Cet1; S. cerevisiae RTPase); experiment: inhibition of [γ-32P]GTP hydrolysis, TLC of released phosphate; assay type: biochemical

SMILES: COc1nc(N)nc2c1ncn2[C@@H]1O[C@H](COP(=O)(O)OP(=O)(O)OP(=O)(O)O)[C@@H](O)[C@H]1O [A-5]
Ki [1]: 27 µM
IC50 [2]: 150 µM

SMILES: Nc1nc(Cl)c2ncn([C@@H]3O[C@H](COP(=O)(O)OP(=O)(O)OP(=O)(O)O)[C@@H](O)[C@H]3O)c2n1 [A-6]
Ki [1]: 9.6 µM
IC50 [2]: 53 µM

SMILES: O=c1[nH]c(=O)c2ncn([C@@H]3O[C@H](COP(=O)(O)OP(=O)(O)OP(=O)(O)O)[C@@H](O)[C@H]3O)c2[nH]1 [A-8]
Ki [1]: 1.8 µM
IC50 [2]: 10 µM

SMILES: Nc1nc2c(ncn2[C@@H]2O[C@H](COP(=O)(O)OP(=O)(O)OP(=O)(O)O)[C@@H](O)[C@H]2O)c(=S)[nH]1 [A-9]
Ki [1]: 2.9 µM
IC50 [2]: 16 µM

SMILES: Nc1nc2c(ncn2[C@@H]2O[C@H](COP(=O)(O)OP(=O)(O)OP(=O)(O)O)[C@@H](O)[C@H]2O)c(=O)[nH]1 [GTP]
Ki [1]: 16 µM
IC50 [2]: 87 µM

SMILES: Nc1nc2c(ncn2[C@H]2C[C@H](O)[C@@H](COP(=O)(O)OP(=O)(O)OP(=O)(O)O)O2)c(=O)[nH]1 [dGTP]
Ki [1]: 14 µM
IC50 [2]: 76 µM

The next compounds have a lower IC50 [2] than those just listed; values first:

Ki [1]: 1.5 µM
IC50 [2]: 8.1 µM
SMILES: Cn1c(N)nc2c(ncn2[C@@H]2O[C@H](COP(=O)(O)OP(=O)(O)OP(=O)(O)O)[C@@H](O)[C@H]2O)c1=O [A-4]

Ki [1]: 0.4 µM
IC50 [2]: 2 µM
SMILES: O=P(O)(O)OP(=O)(O)OP(=O)(O)OC[C@H]1O[C@@H](n2cnc3c(Cl)ncnc32)[C@H](O)[C@@H]1O [A-11]

Ki [1]: 1.1 µM
IC50 [2]: 6.1 µM
SMILES: Nc1nc2c(ncn2[C@H]2CC[C@@H](COP(=O)(O)OP(=O)(O)OP(=O)(O)O)O2)c(=O)[nH]1 [A-12]

IC50 [2]: 8.1 µM
SMILES: O=P(O)(O)OP(=O)(O)OP(=O)(O)OC[C@H]1O[C@@H](n2cnc3c(S)ncnc32)[C@H](O)[C@@H]1O [A-18]

IC50 [2]: 0.4 µM
SMILES: O=P(O)(O)OP(=O)(O)OP(=O)(O)O [Tripoly-PO4]
